Read-outs that look alike come from different tables or passages of the source.

One assay deals with CRP. Put plainly: CRP measurements in 14 week blinded, randomized study. Particulars: 3 mg Prednisolone + Placebo, N = 69, ITT (LOCF). The class given is in vivo, human. On the procedure:
CRP is an acute phase response protein whose production is stimulated by cytokines, particularly interleukin-6 (IL-6). The relationship between inflammatory processes and elevation in plasma CRP and pro-inflammatory cytokines is well known. Typically a serum CRP level of >3 mg/L is considered elevated. Serum CRP levels can be measured by standard techniques known in the art, e.g., ELISA assays (Kamiya Biomedical Co., Seattle, Wash.).
We conducted a 14 week blinded, randomized study including a split dose corticosteroid therapy or placebo, with regular CRP and inflammatory cytokine measurements. The study population had active rheumatoid arthritis.
(§1) Screening Visit • Day 1 (Baseline Visit)—Start of Run-In Period • Day 14 (±2 days)—End of Run-In Period/Start of Treatment Period • Day 42 (±2 days) • Day 70 (±2 days)—End of Treatment Period/Start of Withdrawal Period • Day 98 (±2 days)—End of Study
The powered study ended after these first 10 weeks. […] A schematic of the study design is shown below.

Assay [1] relates to active rheumatoid arthritis. To be noted: 3 mg Prednisolone + Placebo, N = 69, ITT (LOCF).
Text: A visual analog scale (VAS) provides a measure of a one-dimensional quantity. A VAS generally utilizes a representation of distance, such as a picture of a line with hash marks drawn at regular distance intervals, e.g., ten 1-cm intervals. […] This procedure provides a simple and rapid approach to obtaining quantitative information about how the patient is experiencing pain. VAS scales can also be used, e.g., to measure fatigue. VAS scales and their use are described, e.g., in U.S. Pat. Nos. 6,709,406 and 6,432,937.
We conducted a 14 week blinded, randomized study including a split dose corticosteroid therapy or placebo, with regular CRP and inflammatory cytokine measurements. The study population had active rheumatoid arthritis. The subject must otherwise have been in good general health.
as §1
All eligible subjects received DMARD therapy in a stable dose. Subjects were evaluated for study eligibility at the Screening visit, which was conducted within 14 days before the first dose of study drug. The subject provided written informed consent to participate in the study before any Screening laboratory samples were collected or evaluations performed.
All subjects were given 3 mg prednisolone alone for 2 weeks (Run-In Period). Subjects were then randomized into treatment groups to additionally receive 10 mg paroxetine, 20 mg paroxetine or placebo tablets for 8 weeks (Combination Treatment Period). The powered study ended after these first 10 weeks. All subjects continued in an un-powered part of the study for an additional 4 weeks (Withdrawal Period). In this portion of the study, half of the subjects on 10 mg or 20 mg paroxetine plus 3 mg prednisolone stopped taking paroxetine, and instead took 3 mg prednisolone plus placebo, while the other half stopped taking prednisolone, and instead took either dose of paroxetine plus placebo. Similarly, half of the subjects on prednisolone plus placebo stopped the prednisolone, and instead took two placebo tablets, while the other half continued the regimen of 3 mg prednisolone plus placebo. A schematic of the study design is shown below.

Turning to `C[C@]12C=CC(=O)C=C1CC[C@@H]1[C@@H]2[C@@H](O)C[C@@]2(C)[C@H]1CC[C@]2(O)C(=O)CO` [Prednisolone, prednisolone], the figures for the “CRP % Change from baseline, Mean” value with CRP (Day 14), with CRP (Day 42) and in the assay with CRP (Day 70) were 7.11%, −17.67% and −13.66%, respectively. Besides, the “CRP Change from baseline, Mean” value is given as −7.40 in the assay on CRP (Day 14), −8.61 in the assay with CRP (Day 42) and −8.95 with CRP (Day 70). For the same compound, the “CRP Value, Mean” value was 11.42 in the assay on CRP (Day 14), 10.22 in the assay on CRP (Day 42) and 9.88 in the assay with CRP (Day 70). For the same compound, the “Patient Pain Assessment (VAS) Score % Change from baseline, Mean” value in assay [1] (Day 14) is −13.65%; in assay [1] (Day 42), −19.23%; in assay [1] (Day 70) it was −17.84%. The “Patient Pain Assessment (VAS) Score Change from baseline, Mean” value in assay [1] (Day 14) is recorded as −7.73; in assay [1] (Day 42) it was −10.57; in assay [1] (Day 70), −12.28. In addition, the “Patient Pain Assessment (VAS) Score Value, Mean” value was found to be 45.58 in assay [1] (Day 14), 42.74 in assay [1] (Day 42) and 41.04 in assay [1] (Day 70).

Values taken from patent publication US20080287406A1, “Compositions and methods for treating medical conditions” (priority 2007, published 2008).
